A word on the LD50: it is the dose at which mortality reaches 50%. In general, ED50 refers to the midpoint of the dose-response relation.

The values below come from patent publication US3951979A, “New amino propanediol derivatives” (priority 1972, dated 1976).

Read-outs that look alike come from different tables or passages of the source.

Data set [1] relates to carotid arterial blood-pressure. Put plainly: Effect on carotid arterial blood-pressure of the dog anaesthetised with chloralose. It counts as in vivo. The conditions noted are these: for Duration of activity (blood-pressure) / change in vivo at 1.25 mg/kg: 1.25 mg/kg intravenous; for change in vivo at 1.25 mg/kg: Canis lupus familiaris; for Hypotensive effect (in words): in vivo. As for the experimental part: EFFECT ON ARTERIAL BLOOD-PRESSURE This was measured on the dog anaesthetised with chloralose by recording both the extent of, and the duration of, the effect on carotid arterial blood-pressure.

Data set [2] in a line: Acute toxicity, LD50, oral administration. The following applies: in vivo, mouse. The protocol: 1. Acute toxicity -- LD50 -- Oral administration
This was determined upon the mouse by oral administration, the LD50 value being calculated by the method of B. Behrens & C. Karber (Arch F. Exp. Patho. Pharm., volume 177, page 379 (1935) )

Data set [3] relates to apomorphine. Briefly: Anti-apomorphic effect in the rat. The conditions noted are these: for Anti-apomorphine: apomorphine 0.6 mg/kg; for Activity in apomorphine stereotypes (in words): in vivo. Further details: Anti-apomorphine: unit not given here. It counts as in vivo.
For data set [4], the system named is central nervous system. Briefly: Effect on the central nervous system, overall psycholeptic/neuroleptic spectrum. The following applies: in vivo. An excerpt: EFFECT ON THE CENTRAL NERVOUS SYSTEM
This effect was observed by means of a set of tests of which the most significant are summarised below: […]

Data set [5] has as its system cerebral dopamine. Briefly: Biochemical dopamine effect on the brain (spectrofluorometric). The conditions noted are these: mouse, I.P.; for Cerebral dopamine (result in words): dose not given. The class given is in vivo, mouse (strain OF1). The protocol: 7. Biochemical dopamine effect on the brain This effect is measured by spectrofluorometric means using the Jobin-Yvon Bearn apparatus, on the brains of mice of the strain OF1.

Data set [6] has as its system rat. Put plainly: Cataleptic effect, homolateral crossed paws method. It counts as in vivo. Further details: Catalepsy: unit not given here. The conditions noted are these: for Catalepsy, result at stated dose / Catalepsy: I.P.; for Cataleptic effect (in words): in vivo.
The test system of data set [7] is mebubarbital-induced sleep. Put plainly: Potentiation of an inactive dose of a barbiturate (mebubarbital). It counts as in vivo. The conditions noted are these: for ED50: 0.25 h, read-out: Barbiturates (potentiation), ED50.
Data set [8] has as its system apomorphine-induced vomiting. Briefly: Anti-emetic effect: apomorphine-induced attempted vomits in beagle dogs. It counts as in vivo. The conditions noted are these: dog. As for the experimental part: The anti-emetic effect, which may constitute a contributory factor to the main effect, was also systematically tested in accordance with the following procedure:
Dogs of the beagle breed were split up at random into groups of 3 animals. After fasting for 24 hours, the animals were given an empty capsule then, one hour later, received a sub-cutaneous injection of apomorphine hydrochloride (0.3 mg/kg). The number of attempted vomits during 45 minutes was then counted.
After 15 days rest, the same animals were given a capsule identical to that given on the first occasion but containing the product to be tested. The injection of apomorphine was carried out under the same conditions as for the control experiment.

Data set [9] deals with coughing spasms. Briefly: Antitussive effect: inhibition of coughing spasms induced by stimulating a laryngeal nerve. The conditions noted are these: cat, 10 mg/kg body weight. The class given is in vivo, cat. An excerpt: Finally, the compounds of the invention having shown themselves to be powerful antitussive agents, the results of comparative tests for this activity on four compounds of the invention and on pentoxyverine, one of the most powerful antitussive agents at present known, are given below in Table V.
The technique used was the method of R. Domenjoz, Arch. Exp. Pathol. V. Pharmacol. Volume 215, page 19 (1952)
The cat is anaesthetized with ether and tracheotomised.
Coughing spasms are induced by stimulating a laryngeal nerve. After the product to be tested has been administered, fresh stimulation enables the inhibition achieved and its duration to be assessed.

The mark [10] stands for this setting: oral administration, sleep in 50% of animals 15 minutes after product.

As to `C#CC1(OCC(O)CN2CCN(c3ccccc3OC)CC2)CCCCC1` (stereo not drawn) [Compound No. 20, 1-3-(1-ethynyl)cyclohexyloxy-2-hydroxy-propyl-4-(2-methoxy)phenylpiperazine], in data set [1], the “Duration of activity (blood-pressure)” value was at least 70 min, the change in vivo at 1.25 mg/kg is -35.6% and the “Hypotensive effect (in words)” value is reported as “especially hypotensive”. In [2], this compound displayed a median lethal dose (LD50) of 60 mg/kg. This compound also showed an Anti-apomorphine in data set [3] (I.P.) of 5. The “Activity in apomorphine stereotypes (in words)” value in data set [3] is given as “active in apomorphine stereotypes”. For the same compound, the “Sedative effect (in words)” value in data set [4] is “non-sedative”. The “Cerebral dopamine (result in words)” value in data set [5] is “Inactive”. Further, in [6] (at 20), the “Catalepsy, result at stated dose” value is recorded as “Inactive”. Besides, the “Cataleptic effect (in words)” value in data set [6] is listed as “non-inducive of catalepsy”. Further, the “Barbiturates (potentiation), ED50” value in data set [7] (setting [10]) is given as “Inactive”. Also, the “Reduction in attempted vomits” value in [8] (1 mg/kg oral) is given as 100%. Also, the “Reduction in attempted vomits” value in data set [8] (1 mg/kg subcutaneous) came out at 100%. In addition, in data set [8] (oral administration), the “Inhibition of the emetic effect of apomorphine compared with metoclopramide” value is recorded as “superior to that of metoclopramide”. Also, in [8] (subcutaneous injection), the “Inhibition of the emetic effect of apomorphine compared with metoclopramide” value was “equal to that of metoclopramide”.
Turning to `C#CC1(OCC(O)CN2CCN(c3ccccc3)CC2)CCCCC1` (stereo not drawn) [Compound No. 2], the 50% lethal dose (LD50) in [2] was above 600 mg/kg. This compound also yielded an Anti-apomorphine in data set [3] (subcutaneous) of 50. For the same compound, the Cerebral dopamine in data set [5] (at 40 mg/kg) was -33%. In [6], this compound had a Catalepsy of 50. The ED50 in data set [7] (setting [10]) worked out at 100 mg/kg.
In the case of `C[C@](N)(Cc1ccc(O)c(O)c1)C(=O)O` [αmethyldopa, reference compound], in data set [1], the “Duration of activity (blood-pressure)” value was 95 min and the change in vivo at 1.25 mg/kg was -8.7%.
Consider `C#CC(C)(CC)OCC(O)CN1CCN(c2ccc(F)cc2)CC1` (stereo not drawn) [compound 9], for which, in [1], the “Duration of activity (blood-pressure)” value came out at 20 min and the change in vivo at 1.25 mg/kg was -27%. Further, the LD50 in data set [2] was above 600 mg/kg. Also, the Cerebral dopamine in [5] (at 60 mg/kg) is listed as -50%. Moreover, the Catalepsy in data set [6] is reported as 60. The ED50 in [7] (setting [10]) is above 100 mg/kg.
With `C#CC(C)(CC)OCC(O)CN1CCN(c2ccccc2)CC1` (stereo not drawn) [Compound No. 3], in data set [1], the “Duration of activity (blood-pressure)” value was 35 min, the change in vivo at 1.25 mg/kg was -21.5% and the “Hypotensive effect (in words)” value is “markedly hypotensive”. The same compound displayed an LD50 in data set [2] above 600 mg/kg. In addition, the “Neuroleptic/psycholeptic activity (in words)” value in data set [4] is given as “only slightly neuroleptic”. Moreover, the Cerebral dopamine in data set [5] (at 60 mg/kg) was -45%. In data set [6] (at 40), the “Catalepsy, result at stated dose” value is reported as “Inactive”. Besides, the ED50 in data set [7] (setting [10]) is above 100 mg/kg.
In the case of `C#CC1(OCC(O)CN2CCN(c3cccc(C(F)(F)F)c3)CC2)CCCCC1` (stereo not drawn) [Compound No. 11], in [1], the “Duration of activity (blood-pressure)” value was determined as 30 min, the change in vivo at 1.25 mg/kg is -15% and the “Hypotensive effect (in words)” value is “slightly hypotensive”. Also, the LD50 in [2] was 783 mg/kg. In addition, the Anti-apomorphine in data set [3] (O.A.) stood at 15. For the same compound, the “Activity in apomorphine stereotypes (in words)” value in [3] is recorded as “extremely active in apomorphine stereotypes”. Further, the “Sedative effect (in words)” value in data set [4] was “fairly sedative”. Moreover, in data set [5], the “Cerebral dopamine (result in words)” value is “Inactive”. The “Catalepsy, result at stated dose” value in [6] (at 40) is listed as “Inactive”. Besides, the “Cataleptic effect (in words)” value in data set [6] is “slightly cataleptic”. For the same compound, in [7] (setting [10]), the ED50 stood at 90 mg/kg. Further, the “Reduction in attempted vomits” value in data set [8] (10 mg/kg oral) worked out at 75%.
`C#CC1(OCC(O)CN2CCN(c3ccc(Cl)cc3)CC2)CCCCC1` (stereo not drawn) [compound 8]: the LD50 in data set [2] was above 600 mg/kg. Further, the Cerebral dopamine in data set [5] (at 80 mg/kg) was -78%. The compound also yielded a Catalepsy in data set [6] of 30. Moreover, the median effective dose (ED50) in [7] (setting [10]) worked out at 50 mg/kg. Also, the “Reduction in attempted vomits” value in [8] (5 mg/kg oral) is reported as 76%.
Turning to `C#CC(C)(C)OCC(O)CN1CCN(CC(OC)c2ccccc2)CC1` (stereo not drawn) [compound 23], in [9], the “Activity of the product (antitussive)” value is 31% and the “Duration of activity (antitussive)” value was found to be 25 min.
In turn, `O=C(CCCN1CCC(O)(c2ccc(Cl)cc2)CC1)c1ccc(F)cc1` [Haloperidol, haloperidol, reference compound] yielded an LD50 in data set [2] of 125 mg/kg. In [3] (subcutaneous), this compound had an Anti-apomorphine of 0.5. Further, in [5] (at 10 mg/kg), the Cerebral dopamine is -30%. The Catalepsy in data set [6] is 1. Also, the ED50 in data set [7] (po) was 12 mg/kg.
